Key:
[1] = tested on: AChE; conditions: in rat blood; read-out: IC50 (concentration required to inhibit AChE activity by 50%); cited from earlier work
[2] = reference not given; cited from earlier work
[3] = tested on: HepG2 cells; experiment: Intracellular nonprotein disulfides (NP-SS-NP) by HPLC-UV; format: cell-based, human; conditions: IC50 concentration
Protocol: The culture medium was removed from a 25 cm^2 culture flask on the day of the experiment, and cells were washed twice with 3 mL of phosphate-buffered saline (PBS; GE Healthcare Life Sciences, South Logan, UT). Subsequently, 3 mL of a plain DMEM medium (negative control) and a DMEM medium containing TBHP (positive control) or individual oximes were added to each flask, and cells were incubated for 1, 4, and 24 h. The concentration of individual oxime and TBHP in the DMEM medium corresponded to the IC50 value. After incubation, the experimental medium was removed, and cells were washed with 3 mL of PBS and harvested by scraping. The resulting suspension was centrifuged at 220g and 21 °C for 5 min (Universal 320R centrifuge, Hettich, Tuttlingen, Germany). The supernatant was removed and dried cell pellets were stored at −80 °C. Each experiment was carried out in three independent replicates.
The cell pellets were thawed at room temperature, resuspended in 500 μL of ultrapure water (Millipore Purification System, Merck, Millipore, Darmstadt, Germany), and sonicated for 2 min (2 s cycle, amplitude 20%) in a Q500 homogenizer (QSONICA Sonicators, Newton). Then, the homogenate was divided into three parts: 250 μL for the determination of malondialdehyde (MDA), 100 μL for each determination of nonprotein thiols (NP-SH) and disulfides (NP-SS-NP), and 10 μL for the Bradford protein assay.
The HepG2 cell homogenate obtained, as described in Section 2.6, was processed for the determination of intracellular NP-SH and NP-SS-NP, according to Muckova et al.[11] The samples were analyzed using the HPLC system described above equipped with an SPD 20-AV Prominence UV/vis detector. The analysis was carried out on a Phenomenex LUNA C18 column (150 mm × 3 mm, 3 μm, 100 Å) protected with a Security Cartridge (4 mm × 2 mm, Phenomenex, Torrance) at 30 °C and a constant flow rate of 0.330 mL/using the mobile phase consisting of 0.9% aqueous FA (A) and ACN (B) under gradient conditions: 0–1 min 12% B, 1.1–2 min 12–55% B, 2–7 min 55% B, 7.1 min 55% B, and 7.1–10 min 12% B. The detector was set at 326 nm and the sample injection volume was 20 μL.

[4] = tested on: HepG2 cells; experiment: Flow cytometric detection of cell death (Annexin V & Dead Cell Assay); format: cell-based, human; conditions: IC50 concentration
Excerpt: 2. Flow cytometric detection of cell death
The microcapillary flow cytometry (Muse™ Cell Analyzer, Luminex, Austin, TX) was used to determine cell death.
This method is based on detecting externalization of phosphatidylserine on the surface of cells undergoing apoptosis.
The technique allows quantitative analysis of non-apoptotic, early apoptotic, late apoptotic, and necrotic cells. The reagent mixture also contains the membrane non-permeable dye 7-aminoactinomycin D. This component distinguishes necrotic and late apoptotic cells from the live and early apoptotic cells. The measurement of cell death was carried out according to manufacturer instructions after 1, 4, and 24 h incubation with tested oxime reactivators and with oxime-free medium as an untreated control. During the first day of the experiment, cells were seeded into a 24-well plate (TPP) with a density of […]. After the incubation, cells from each well were collected into the polystyrene tube (TPP) and centrifuged for 5 min at 1000 × g at room temperature. The supernatant was discarded. The cell suspensions […]
were prepared in fresh medium DMEM. Afterward 100 μL of cell suspension were mixed with the 100 μL of Muse™ Annexin V & Dead Cell Assay reagent, and the samples were incubated for 20 min at room temperature in the dark.
Per measurement, 5000 cells were analyzed. Each experiment was performed in triplicates and repeated three independent times. The concentration of K048, K074, K075, and K203 oximes and TBHP (positive control) used in […]
After 1 h of incubation (Figure S-1.) with tested oxime reactivators and TBHP as the positive control, the percentage […]
A significant change in the percentage of
The amount of early apoptotic cells
. On the other hand, the percentage of late apoptotic cells was […]
control cells. The count of late apoptotic cells enlarged by 7.74, 4.71 , 4.17, 4.13, and 3.20 %, respectively. The statistical differences were also found in the percentage of necrotic cells in this time interval. The highest increment […]
K048, K074, K075, and K203 groups when compared with control.
K075, and K203 treated groups, respectively, when compared with control. Finally, the percentage of necrotic cells […]
Fig. S-1 The percentage of intact (white column), early (light grey column), late apoptotic (dark grey column), and necrotic HepG2 cells (black column) determined using microcapillary flow cytometry after 1 h, 4 h and 24 h treatment with oxime acetylcholinesterase reactivators or TBHP (positive control). Control represents the cells incubated with an oxime-free culture medium. One-way analysis of variance (ANOVA) followed by Dunnetʼs multiple comparison test was used for statistical analysis by GraphPad Prism 9 software version 9.3.0. Data are expressed as means ± standard deviation (SD) of three independent measurements (n = 3). Significant differences between oxime-treated and untreated control groups (p ≤ 0.05) and marked by asterisk (*).
3. Stability of oximes in DMEM medium at 37 °C over 24 hours
The stability of oximes K048, K074, K075, and K203 in DMEM medium, with concentrations corresponding to their […]
UV, following the chromatographic conditions described by Vanova et al. (2021)13. The results over the tested time […]
Fig. S-2 Data are expressed in percentage as means ± standard deviation (SD) of three independent measurements […]

[5] = tested on: HepG2 cells; conditions: combined exposure with TBHP (IC50 concentration); oximes about 10-fold below IC50; cited from earlier work

NC(=O)c1cc[n+](CCCC[n+]2ccc(C=NO)cc2)cc1.[Br-].[Br-] [K048, 4-carbamoyl-1-(4-(4-((hydroxyimino)methyl)pyridin-1-ium-1-yl)butyl)pyridin-1-ium dibromide]
IC50 [1]: ~643 µM | log P [2]: −2.61 | increase in NP-SS-NP levels vs untreated control ([3]; 1 h): 34.8% | increase in NP-SS-NP levels vs untreated control ([3]; 4 h): 54.8% | increase in NP-SS-NP levels vs untreated control ([3]; 24 h): 61.5% | decrease in percentage of intact (live) cells vs control ([4]; 1 h): ~9.71% | increase in early apoptotic cells vs control ([4]; 1 h): about 5.05% | increase in late apoptotic cells vs control ([4]; 1 h): 4.17% | decrease in percentage of live cells vs control ([4]; 4 h): 11.2% | increase in early apoptotic cells vs control ([4]; 4 h): 5.72% | increase in late apoptotic cells vs control ([4]; 4 h): 4.35% | increase in necrotic cell population vs control ([4]; 4 h): 1.17% | decrease in percentage of intact cells vs control ([4]; 24 h): 45.6% | increase in early apoptotic cells vs control ([4]; 24 h): 18.2% | increase in late apoptotic cells vs control ([4]; 24 h): 26.2% | increased production of ROS [5]: 25%

O/N=C/c1cc[n+](CCCC[n+]2ccc(/C=N/O)cc2)cc1 [K074, 1,1′-(butane-1,4-diyl)bis(4((hydroxyimino)methyl)pyridine-1-ium) dibromide]
IC50 [1]: ~66 µM | log P [2]: −1.74 | increase in NP-SS-NP levels vs untreated control ([3]; 1 h): 42.8% | increase in NP-SS-NP levels vs untreated control ([3]; 4 h): 52.4% | increase in NP-SS-NP levels vs untreated control ([3]; 24 h): 72.3% | decrease in percentage of intact (live) cells vs control ([4]; 1 h): ~8.85% | increase in early apoptotic cells vs control ([4]; 1 h): ~2.45% | increase in late apoptotic cells vs control ([4]; 1 h): 4.71% | increase in necrotic cells vs control ([4]; 1 h): 1.69% | decrease in percentage of live cells vs control ([4]; 4 h): 8.3% | increase in early apoptotic cells vs control ([4]; 4 h): 4.17% | increase in late apoptotic cells vs control ([4]; 4 h): 3.47% | increase in necrotic cell population vs control ([4]; 4 h): 0.67% | decrease in percentage of intact cells vs control ([4]; 24 h): 45.5% | increase in early apoptotic cells vs control ([4]; 24 h): 14.1% | increase in late apoptotic cells vs control ([4]; 24 h): 31.3% | increased production of ROS [5]: 16%

— publication PMC10731658 (Chemical Research in Toxicology, 2023)
